Results from patent publication US9163042B2, “Prodrugs of pyridone amides useful as modulators of sodium channels” (VERTEX PHARMACEUTICALS INCORPORATED, priority 2013, dated 2015).
Where two headings read alike, the source gives them in different places.

Legend:
human Nav1.8 = human Nav1.8 (Homo sapiens (Human), UniProt Q9Y5Y9); assay: E-VIPR optical membrane potential assay with electrical stimulation (NaV1.8 IC50 activity); type: cell-based
Text: Sodium channels are voltage-dependent proteins that can be activated by inducing membrane voltage changes by applying electric fields. The electrical stimulation instrument and methods of use are described in Ion Channel Assay Methods PCT/US01/21652, herein incorporated by reference and are referred to as E-VIPR. The instrument comprises a microtiter plate handler, an optical system for exciting the coumarin dye while simultaneously recording the coumarin and oxonol emissions, a waveform generator, a current- or voltage-controlled amplifier, and a device for inserting electrodes in well. Under integrated computer control, this instrument passes user-programmed electrical stimulus protocols to cells within the wells of the microtiter plate.
24 hours before the assay on E-VIPR, HEK cells expressing human Nav1.8 were seeded in 384-well poly-lysine coated plates at 15,000-20,000 cells per well. […] Cells were grown in vented cap flasks, in 90% humidity and 5% CO2.
1) Pre-spotted compounds (in neat DMSO) into compound plates. […] Final compound plate volume was 80 μL (80-fold intermediate dilution from 1 μL DMSO spot; 160-fold final dilution after transfer to cell plate).
2) Prepared Hexyl Dye Solution.
3) Prepared cell plates. On the day of the assay, medium was aspirated and cells were washed three times with 100 μL of Bath1 Solution, maintaining 25 μL residual volume in each well.
4) Dispensed 25 μL per well of Hexyl Dye Solution into cell plates. Incubated for 20-35 minutes at room temp or ambient conditions.
5) Dispensed 80 μL per well of Bath1 into compound plates. Acid Yellow-17 (1 mM) was added and Potassium Chloride was altered from 4.5 to 20 mM depending on the NaV subtype and assay sensitivity.
6) Washed cell plates three times with 100 μL per well of Bath1, leaving 25 μL of residual volume. […] Incubated for 20-35 minutes at room temp/ambient condition.
7) Read Plate on E-VIPR. […] A pre-stimulus recording was performed for 0.5 seconds to obtain the un-stimulated intensities baseline. The stimulatory waveform was followed by 0.5 seconds of post-stimulation recording to examine the relaxation to the resting state.
Data was analyzed and reported as normalized ratios of emission intensities measured in the 460 nm and 580 nm channels. The response as a function of time was reported as the ratios obtained using the following formula: […]
The data was further reduced by calculating the initial (Ri) and final (Rf) ratios. These were the average ratio values during part or all of the pre-stimulation period, and during sample points during the stimulation period. The response to the stimulus R=Rf/Ri was then calculated and reported as a function of time.
Control responses were obtained by performing assays in the presence of a compound with the desired properties (positive control), such as tetracaine, and in the absence of pharmacological agents (negative control). Responses to the negative (N) and positive (P) controls were calculated as above.

[1] = Monkey oral pharmacokinetic study; type: in vivo, cynomolgus monkeys
Procedure: (§1) Sample Analysis. […] Before extraction, plasma samples were diluted using blank plasma at an appropriate dilution factor, as necessary, depending on the dose level. […] After centrifugation, the supernatant extract (10 μL) was injected onto the LC/MS/MS system. The HPLC system included a Phenomenex Synergy Kinetix C8 column, 2.6 micron, 2.0 mm diameter×75 mm long eluted with a gradient mobile phase consisting of 0.1% formic acid in water or in acetonitrile.
(§2) The analytes were detected by MS/MS with Electrospray Ionization (ESI) in the mode of multiple reaction monitoring (MRM). […] The intra-day and inter-day assay accuracy was within 20% of the nominal values. The intra- and inter-day assay variability was ≦20%.
(§3) Pharmacokinetic Data Analysis.
(§4) Key pharmacokinetic parameters such as AUCall, AUCextra, Cmax, tmax, Cl, Vss and t1/2 were determined.
(§5) Statistical Data Analysis. Descriptive statistical data of pharmacokinetic parameters were calculated, including the mean, standard deviation (SD), using Watson LIMS version 7.4 SP3 or Microsoft Excel 2000.
Male or female cynomolgus monkeys (n=3 per dose group) were administered single nominal PO doses of 10, 40, 100, 300, 500, 750 and 1000 mg/kg of compound 9 by gavage. Compound 9 was formulated in 30% PEG400 and 10% TPGS in water or 5% TPGS, 5% PVP-K30 in 50 mM Citrate, pH 5. […]

[2] = Rat IV pharmacokinetic study; type: in vivo, Sprague Dawley rats; conditions: rat, single IV bolus 1 mg/kg of compound 9; LLOQ 2.5 ng/mL
Procedure: as §1, §2, §3, §4, §5
Male Sprague Dawley rats (n=3) were administered a single nominal IV bolus dose of 1 mg/kg of compound 9 via a jugular vein cannula. […] Animals had free access to food and water before and after dosing. Blood samples (approximately 0.25 mL each) were collected via a carotid artery catheter prior to dosing and at 5 min, 10 min, 0.25, 0.5, 1, 2, 4, 8, 12, 24 hours post dose. Each blood sample was collected into a tube that was kept on wet ice and contained potassium EDTA as the anticoagulant. Plasma was separated and stored at approximately −70° C. until analysis.
Plasma concentration vs. time data were subjected to noncompartmental pharmacokinetic (PK) analysis.

[3] = Rat oral pharmacokinetic study; type: in vivo, Sprague Dawley rats
Procedure: as §1, §2, §3, §4, §5
Groups of male and female Sprague Dawley rats (n=3 per dose group) were administered single nominal oral doses of 10, 100, 400, 640, 1000 mg/kg (for males) and 30, 100, 300, 640, 1000 mg/kg (for females) of compound 9 by gavage. Compound 9 was formulated in either 30% PEG400 and 10% TPGS in water or 5% TPGS, 5% PVP-K30 in 50 mM Citrate, pH 5. Animals had free access to food and water before and after dosing. Blood samples (approximately 0.25 mL each) were collected via a carotid artery catheter prior to dosing and at 0.25, 0.5, 1, 2, 4, 8, 12, 24, 48 and 72 hours post dose. Each blood sample was collected into a tube that was kept on wet ice and contained potassium EDTA as the anticoagulant. Plasma was separated and stored at approximately −70° C. until analysis.

Aqueous solubility study = type: physicochemical; conditions: thermodynamic from solid
Procedure: The aqueous solubility of compound 9 and 9a were determined according to the following procedure. Solubility data was determined at ambient conditions by equilibrating the compound with water on a shaking bed for 24 hours, followed by centrifugation and separation of the saturated solutions. The pH value of each media was measured before centrifugation, and the saturated solutions were assayed by HPLC.

Sequence of human Nav1.8 (Q9Y5Y9 whole entry): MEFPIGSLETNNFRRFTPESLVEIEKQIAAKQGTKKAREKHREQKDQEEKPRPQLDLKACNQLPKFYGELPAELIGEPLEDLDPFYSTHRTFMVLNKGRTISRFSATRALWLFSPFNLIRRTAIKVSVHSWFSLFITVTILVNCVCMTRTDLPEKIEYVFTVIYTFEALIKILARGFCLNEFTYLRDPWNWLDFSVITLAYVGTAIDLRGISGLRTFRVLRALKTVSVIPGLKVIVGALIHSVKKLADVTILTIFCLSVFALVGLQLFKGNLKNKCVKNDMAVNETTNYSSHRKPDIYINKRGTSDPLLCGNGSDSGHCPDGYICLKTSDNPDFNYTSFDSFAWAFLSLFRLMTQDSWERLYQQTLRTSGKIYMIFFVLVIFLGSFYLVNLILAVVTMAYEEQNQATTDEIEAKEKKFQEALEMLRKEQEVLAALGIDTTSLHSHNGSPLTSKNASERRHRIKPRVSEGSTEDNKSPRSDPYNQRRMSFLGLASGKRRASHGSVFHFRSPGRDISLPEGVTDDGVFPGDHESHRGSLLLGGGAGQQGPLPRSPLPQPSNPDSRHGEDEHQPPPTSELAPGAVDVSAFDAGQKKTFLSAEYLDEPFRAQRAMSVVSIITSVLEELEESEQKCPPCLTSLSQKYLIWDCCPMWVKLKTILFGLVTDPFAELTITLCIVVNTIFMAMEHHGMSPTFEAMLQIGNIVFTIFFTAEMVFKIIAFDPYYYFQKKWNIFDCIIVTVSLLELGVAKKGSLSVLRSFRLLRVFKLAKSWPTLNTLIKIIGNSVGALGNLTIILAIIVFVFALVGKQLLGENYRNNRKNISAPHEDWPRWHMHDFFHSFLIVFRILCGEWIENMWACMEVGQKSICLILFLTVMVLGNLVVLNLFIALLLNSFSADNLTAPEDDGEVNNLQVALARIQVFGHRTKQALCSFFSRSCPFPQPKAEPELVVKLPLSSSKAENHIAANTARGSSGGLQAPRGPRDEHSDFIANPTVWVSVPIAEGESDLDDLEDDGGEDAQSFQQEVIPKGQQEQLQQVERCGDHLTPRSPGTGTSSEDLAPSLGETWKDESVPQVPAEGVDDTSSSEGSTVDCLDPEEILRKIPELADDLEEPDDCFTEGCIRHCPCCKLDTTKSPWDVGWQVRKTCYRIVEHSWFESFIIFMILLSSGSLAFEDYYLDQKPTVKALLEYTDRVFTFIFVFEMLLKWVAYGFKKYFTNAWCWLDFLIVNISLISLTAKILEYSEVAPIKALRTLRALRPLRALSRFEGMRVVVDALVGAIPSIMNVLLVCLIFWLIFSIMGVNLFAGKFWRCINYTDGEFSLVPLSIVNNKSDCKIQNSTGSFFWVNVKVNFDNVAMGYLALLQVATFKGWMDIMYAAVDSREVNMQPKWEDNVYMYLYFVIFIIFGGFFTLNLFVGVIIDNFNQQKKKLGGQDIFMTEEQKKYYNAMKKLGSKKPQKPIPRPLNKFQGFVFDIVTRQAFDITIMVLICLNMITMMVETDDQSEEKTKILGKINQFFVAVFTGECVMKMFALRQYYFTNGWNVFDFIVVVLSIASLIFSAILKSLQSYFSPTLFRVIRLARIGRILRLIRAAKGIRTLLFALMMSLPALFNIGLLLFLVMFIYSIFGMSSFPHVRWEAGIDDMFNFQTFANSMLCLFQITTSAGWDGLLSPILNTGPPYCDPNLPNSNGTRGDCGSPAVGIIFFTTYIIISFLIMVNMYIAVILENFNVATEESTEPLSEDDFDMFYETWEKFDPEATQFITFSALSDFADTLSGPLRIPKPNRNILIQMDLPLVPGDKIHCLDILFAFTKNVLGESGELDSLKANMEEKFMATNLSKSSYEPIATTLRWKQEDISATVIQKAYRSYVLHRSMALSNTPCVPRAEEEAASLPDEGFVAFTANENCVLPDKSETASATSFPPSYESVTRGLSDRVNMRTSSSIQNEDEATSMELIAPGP

Compound: Cc1cc(F)ccc1Oc1cc(C(F)(F)F)ccc1C(=O)Nc1ccn(COP(=O)(O)O)c(=O)c1 [Compound 9, (4-(2-(4-fluoro-2-methylphenoxy)-4-(trifluoromethyl)benzamido)-2-oxopyridin-1(2H)-yl)methyl dihydrogen phosphate]
- IC50 (human Nav1.8): 330 nM
- plasma concentrations of compound 9 ([1]; monkey, single PO doses 10-1000 mg/kg of compound 9, LLOQ 10.0 to 25.0 ng/mL): below LLOQ for the majority of the samples
- in vivo conversion of prodrug into parent compound ([1]; monkeys): converted in vivo into compound 9a
- plasma concentrations of compound 9 [2]: below LLOQ for the majority of the samples
- plasma concentrations of compound 9 ([3]; rat, single oral doses 10-1000 mg/kg of compound 9, LLOQ 2.5 to 25 ng/mL): below LLOQ for the majority of the samples
- in vivo conversion of prodrug into parent compound ([3]; rats): converted in vivo into compound 9a
- solubility at 24 h (Aqueous solubility study; aqueous medium, aqueous buffer, pH 3, crystalline, ambient conditions, 24 hours, read-out: Solubility): 110 µg/mL
- solubility at 24 h (Aqueous solubility study; aqueous medium, aqueous buffer, pH 3.3, crystalline, ambient conditions, 24 hours, read-out: Solubility): 240 µg/mL
- solubility at 24 h (Aqueous solubility study; aqueous medium, aqueous buffer, pH 5, crystalline, ambient conditions, 24 hours, read-out: Solubility): 420 µg/mL
- solubility at 24 h (Aqueous solubility study; aqueous medium, aqueous buffer, pH 7, crystalline, ambient conditions, 24 hours, read-out: Solubility): 500 µg/mL
- solubility at 24 h (Aqueous solubility study; aqueous medium, aqueous buffer, pH 8, crystalline, ambient conditions, 24 hours, read-out: Solubility): 2240 µg/mL
- solubility at 24 h (Aqueous solubility study; aqueous medium, simulated gastric fluid, pH 1, crystalline, ambient conditions, 24 hours, read-out: Solubility): 2 µg/mL
- solubility at 24 h (Aqueous solubility study; water, read-out: aqueous solubility in water): ~300 µg/mL
